Results as given in patent US5594024A, “Centrally actig substituted phenylazacycloalkanes” (priority 1995, dated 1997).
Entries after “also recorded” stand apart in the source; their conditions may differ.

Experiments:
5-HT1A = molecular target: T1, 5-HT1A (Rattus norvegicus, UniProt P19327); assay: 5-HT1A radioligand binding ([3H]-8-OH-DPAT); parameters: species or system rat (male Sprague-Dawley)
T1 construct: the whole brain with the exception of the brainstem and cerebellum was rapidly removed; from tissue
T1 sequence (P19327 1-422): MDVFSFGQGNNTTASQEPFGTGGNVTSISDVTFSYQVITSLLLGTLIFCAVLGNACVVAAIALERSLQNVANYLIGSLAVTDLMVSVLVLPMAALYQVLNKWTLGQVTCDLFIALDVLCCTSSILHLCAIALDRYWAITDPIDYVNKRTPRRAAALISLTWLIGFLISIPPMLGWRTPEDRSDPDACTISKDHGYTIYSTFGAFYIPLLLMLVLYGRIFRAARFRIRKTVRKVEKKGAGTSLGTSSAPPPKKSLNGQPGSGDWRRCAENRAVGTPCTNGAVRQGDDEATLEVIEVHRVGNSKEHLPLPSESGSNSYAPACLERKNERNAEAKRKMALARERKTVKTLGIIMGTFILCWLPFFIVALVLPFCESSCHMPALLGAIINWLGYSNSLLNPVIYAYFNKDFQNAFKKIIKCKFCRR
Method in brief: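 Rat forebrain membranes (whole brain minus brainstem and cerebellum) in 50 mM Tris pH 8.0 with NaCl, CaCl2, MgCl2 and 10 μM pargyline; 1 nM [3H]-8-OH-DPAT, 15 min at 37° C., filtration. Nonspecific binding defined with 10 μM 5-HT; IC50 by semi-log plot and linear regression.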

non-pretreated rats = assay: Locomotor activity and gross behavior in non-habituated (non-pretreated) rats; conditions: for Gross Behavioral Observations: non-pretreated rats
[1] = tested on: central dopamine receptors; assay: Locomotor activity and DA synthesis in reserpinized rats; format: in vivo, rat; conditions: reserpinized rats
5-HT receptor = assay: 5-HT metabolism (5-HIAA levels) in habituated rats; format: in vivo, rat (male Sprague-Dawley); conditions: Table 3
Experimental: Footnotes Table 3. The rats were habituated to the motility meters 60 min
SEM. The rats were immediately killed after the activity session, striata
and limbic levels of DOPAC and 5HIAA were measured by means of HPLCEC. *p
In the experiments with habituated rats no NSD was administered and the animals were killed one hour after drug administration. […] The levels were expressed as % of controls (DOPAC and 5-HIAA see Table 3). The in vivo brain microdialysis experiments were performed in conscious rats as described by Waters et al., Eur. J. Pharm., 187, 425-34 (1990).
Injection volumes were 5 mL/kg. […]

For CCCN1CCC[C@@H](c2cccc(C#N)c2)C1 [S-(-)-34, S-(-)-3-(3-Cyanophenyl-N-n-propyl)piperidine], the “affinity for the 5-HT1A receptors in vitro (in words)” value (5-HT1A) was “very low affinity for the 5-HT1A receptors”, the IC50 (5-HT1A; [3H]-8-OH-DPAT, rat cortex, read-out: in vitro binding IC50, 5HT1A) was 75 µM and the “increase in motor activity, maximal effect” value (non-pretreated rats; 25-200 μmol/kg, sc, dose-dependent monophasic, non-habituated rats) was “+60%”. For the same compound, the “Gross Behavioral Observations” value (non-pretreated rats; 50 sc) was “Activation”, the “Gross Behavioral Observations” value (non-pretreated rats; 100 sc) was “Activation” and the “Gross Behavioral Observations” value (non-pretreated rats; 200 sc) was “No change”. The “DA synthesis rate / DOPA accumulation in reserpinized rats (in words)” value [1] was “failed to affect the DOPA accumulation in reserpinized” and the “brain 5-HIAA levels (in words)” value (5-HT receptor) was “no statistical significant effects; also recorded: No effects on the brain levels of 5-HIAA; also recorded: failed to affect brain levels of 5-HIAA”.
